Measurements reported in patent US20210263039A1, “APPLICATION OF NIEMANN-PICK C1 PROTEIN IN DIAGNOSIS AND TREATMENT OF CANCER” (BEIJING PROTEOME RESEARCH CENTER, priority 2018, published 2021).
Several values for one entry are separate records, joined by “and”; a condition that tells them apart may be missing. Equal entries are not always repeated.

Columns and labels:
[1] = liver cancer patients; cited from earlier work
[2] = system: liver cancer cells; assay: Migration of liver cancer cells; format: cell-based
[3] = system: cervical cancer cell line Hela; assay: CCK8 proliferation experiment, Hela; format: cell-based, human
Protocol: (§1) 1) On the first day, after routine trypsinization and counting of cells in a 60 mm culture dish, the cells were seeded onto four 96-well plates at a density of 5000 cells/well.
(§2) 2) On the second day, after about 24 hours of culture, the cell growth was in the logarithmic growth phase and the culture medium was replaced with a new culture medium with different concentrations of SOAT1 inhibitor in a volume of 100 μL/well. 10 μM group, 20 μM group and control group (1‰ DMSO) were set, each group included three repeated wells. 10% CCK8 (100 μL/well) was added to the wells of one 96-well plate, and OD value of 0 h was measured at 450 nm after 1 h, with cell-free wells as background.
(§3) 3) On the third day, 10% CCK8 was added to the wells of one 96-well plate and OD value of 24 h was measured at 450 nm after 1 h.
(§4) 4) On the fourth day, 10% CCK8 was added to the wells of one 96-well plate and OD value of 48 h was measured at 450 nm after 1 h.
(§5) 5) On the fifth day, 10% CCK8 was added to the wells of the last 96-well plate and OD value of 72 h was measured at 450 nm after 1 h.
(§6) 6) OD values at all time points were summarized and a growth curve was drawn.

[4] = system: STAT3 signaling pathway; assay: STAT3 signaling pathway activation after IL6 stimulation (STAT3-Y705 antibody); format: cell-based
Description: The conventional western blotting method was adopted.
STAT3-Y705 (EP2147Y) antibody was purchased from Abcam.

[5] = system: human hepatocarcinoma HepG2 liver orthotopic transplantation tumors; assay: Liver orthotopic transplantation tumors in nude mice bearing human hepatocarcinoma HepG2 cells; format: in vivo
Description: A total of 30 female Nu/Nu nude mice aged 5-7 weeks and weighing 18.0-21.0 g were purchased from Beijing Vital River Laboratory Animal Technology Co., Ltd., animal certificate was SCXK (JING)-2015-0001. The test animals were kept in sterile independent ventilation cages (IVC), with 5-6 mice per cage. The litter was corncob litter sterilized by ^60Co radiation, with a particle size of 4-6 mm. The animals were fed with sterilized feed specially formulated for mice and were given pure water to drink freely. The temperature in the animal laboratory was maintained at about 25° C., the relative humidity was maintained at 40-70%, and the daily light was 12 hours.
The cells in the logarithmic growth phase were digested with trypsin and collected, washed and resuspended with normal saline, so that the final cell concentration was about 1×10^7 cells/ml suspension. 0.2 ml of tumor cell suspension was injected under the skin of the right forelimb axillary in nude mice, and the tumor-bearing nude mice were established for passage and preservation.
When the subcutaneous tumor volume of the nude mice for preservation grew to 1000-1500 mm^3, tumors were removed and cut into tumor blocks of about 1.0 mm^3 for use under aseptic conditions. The nude mice to be operated were anesthetized and fixed on the operating table, and the abdominal skin was disinfected. An incision of about 1 cm was made in the upper right abdomen to expose the liver and the animal was covered with surgical drapes. The prepared tumor block was put into a special inoculation trocar, the tumor block was implanted into the liver with the trocar, and the bleeding wound was treated with a sterile cotton swab to stop bleeding. Then the liver after the operation was put back into the abdominal cavity of the mouse, and the abdominal muscles and skin of the incision were sutured sequentially with No. 4/0 surgical suture needle.
The experiment preset model control group and U18666A group.
Model animals were examined by B-ultrasound 3 weeks after operation, and grouped randomly according to B-ultrasound results. The test drug U18666A was administered intraperitoneally, once a day.
After the experiment, the animals were sacrificed by cervical dislocation. The liver was dissected, and the tumors visible to the naked eye were removed and weighed. All dissected tissues were preserved in a 4% formaldehyde solution for routine pathological examination.
Data were represented as x±SD; Tumor growth inhibition rate=(tumor weight in the control group−tumor weight in the administration group)/tumor weight in the control group×100%. All analyses were completed with GrghPad Prism software, and P<0.05 was considered to indicate a significant difference.

[6] = system: colon cancer cell line HCT116; assay: CCK8 proliferation experiment, HCT116; format: cell-based, human
Protocol: as §1, §2, §3, §4, §5, §6

[7] = system: PLC/PRF/5 liver cancer cell line; assay: CCK8 proliferation experiment, PLC/PRF/5; format: cell-based, human; conditions: inhibitor 10 μM and 20 μM groups vs 1‰ DMSO, OD 450 nm at 0-72 h
Protocol: (§7) 1) On the first day, PLC/PRF/5 or HepG2 cells were seeded onto a 6-well plate.
(§8) 2) On the second day, when the cell confluence was about 40-50%, NPC1-sh or NPC1-control lentivirus was added at 200 μl/well for virus infection.
(§9) 3) On the third day, puromycin was added to infected PLC/PRF/5 or HepG2 cells to a final concentration of 2 μg/mL for selection.
(§10) 4) On the sixth day, part of the cells was collected according to the conventional method for CCK8 experiment, and part of the cells were lysed to obtain proteins and subjected to Western blotting. […]
as §2, with “10 μM group, 20 μM group and control group (1‰ DMSO) were set, each group included three repeated wells.” left out
as §3, §4
(§11) 5) On the fifth day, 10% CCK8 was added to the wells of the last 96-well plate and OD value of 72 h was measured at 450 nm after 1 h. […]

[8] = system: Huh7 liver cancer cell line; assay: CCK8 proliferation experiment, Huh7; format: cell-based, human; conditions: inhibitor 10 μM and 20 μM groups vs 1‰ DMSO, OD 450 nm at 0-72 h
Protocol: as §1, §2, §3, §4, §5, §6

[9] = system: HepG2 liver cancer cell line; assay: CCK8 proliferation experiment, HepG2; format: cell-based, human; conditions: inhibitor 10 μM and 20 μM groups vs 1‰ DMSO, OD 450 nm at 0-72 h
Protocol: as §7, §8, §9, §10
as §2, with “10 μM group, 20 μM group and control group (1‰ DMSO) were set, each group included three repeated wells.” left out
as §3, §4, §11

[10] = system: non-small cell lung cancer cell line A549; assay: CCK8 proliferation experiment, A549; format: cell-based, human
Protocol: as §1, §2, §3, §4, §5, §6

[11] = system: leukemia cell line Jurkat; assay: CCK8 proliferation experiment, Jurkat; format: cell-based, human
Protocol: as §1, §2, §3, §4, §5, §6

[12] = system: esophageal cancer cell line ECA109; assay: CCK8 proliferation experiment, ECA109; format: cell-based, human
Protocol: as §1, §2, §3, §4, §5, §6

[13] = system: plasma membrane cholesterol; assay: Filipin III-based cholesterol staining of the plasma membrane; format: cell-based
Protocol: (§12) Reagents: Cholesterol Cell-Based Detection Assay Kit (No10009779) was purchased from Cayman. Human sIL6R ELISA kit (BMS214) was purchased from ebioscience. The relevant experiments were conducted according to the instructions.

[14] = system: MHCC97H liver cancer cell line; assay: CCK8 proliferation experiment, MHCC97H; format: cell-based, human; conditions: inhibitor 10 μM and 20 μM groups vs 1‰ DMSO, OD 450 nm at 0-72 h
Protocol: as §1, §2, §3, §4, §5, §6

[15] = system: IL6R; assay: sIL6R ELISA, shedding of IL6R from the cell membrane; format: cell-based
Protocol: as §12

| SMILES | prolongation of the survival period of patients [1] | migration of liver cancer cells [2] | proliferation of common cancer cell lines [3] | activation of STAT3 signaling pathway [4] | Average weight (g) Begining ([5]; body weight at beginning, nude mice, x±SD) | Average weight (g) End ([5]; body weight at end, i.p., 20 mg/kg, once a day, 23 days, x±SD) | Tumor growth inhibition rate (%) ([5]; by tumor weight vs control group, i.p., 20 mg/kg, once a day, 23 days) | Tumor weight ([5]; group mean x±SD, i.p., 20 mg/kg, once a day, 23 days) | Tumor weight (g), individual tumors ([5]; single animals of the group, i.p., 20 mg/kg, once a day, 23 days, 20 mg/kg) | proliferation of common cancer cell lines [6] | proliferation of liver cancer cells (CCK8 growth curve) [7] | proliferation of liver cancer cells (CCK8 growth curve) [8] | proliferation of liver cancer cells (CCK8 growth curve) [9] | proliferation of common cancer cell lines [10] | proliferation of common cancer cell lines [11] | proliferation of common cancer cell lines [12] | plasma membrane cholesterol [13] | proliferation of liver cancer cells (CCK8 growth curve) [14] | shedding of IL6R receptor on the cell membrane [15] |
| --- | --- | --- | --- | --- | --- | --- | --- | --- | --- | --- | --- | --- | --- | --- | --- | --- | --- | --- | --- |
| CNC(=O)c1cc(Oc2ccc(NC(=O)Nc3ccc(Cl)c(C(F)(F)F)c3)cc2)ccn1 [Sorafenib] | 3 months | – | – | – | – | – | – | – | – | – | – | – | – | – | – | – | – | – | – |
| CCN(CC)CCO[C@H]1CC[C@@]2(C)C(=CC[C@@H]3[C@@H]2CC[C@]2(C)C(=O)CC[C@@H]32)C1.Cl [U18666A] | – | significantly inhibit | significantly inhibited the proliferation | blocked | 23.74 ± 0.86 g | 23.34 ± 2.29 g | 62.1% | 0.3574 ± 0.3914 g | 0.0333 g and 0.0916 g and 0.0957 g and 0.0958 g and 0.1653 g and 0.3852 g and 0.5450 g and 0.5512 g and 1.2533 g | significantly inhibited the proliferation | significantly inhibit the proliferation | significantly inhibit the proliferation | significantly inhibit the proliferation | significantly inhibited the proliferation | significantly inhibited the proliferation | significantly inhibited the proliferation | significantly down-regulated | significantly inhibit the proliferation | increased shedding |
